Measurements taken from US20030124616A1, “Homocysteinylated transthyretin” (priority 2001, published 2003).

How the values were obtained:
[1] = molecular target: T1, albumin (Homo sapiens, UniProt P02768); assay: Binding of 35S-L-homocysteine and 35S-L-cysteine to plasma proteins (SDS-PAGE, phosphorimaging); conditions: 500 μmol/L, plasma diluted 1:1 with TES buffer
T1 construct: from tissue; host or cells: human plasma
Protocol: (§1) ^35S-L-homocysteine (500 μmol/L final concentration) was added to either human plasma fibronectin (1 mg/mL, 0.05 mol/L TES buffer, pH 7.4) or human plasma diluted 1:1 with 0.05 mol/L TES buffer, pH 7.4 and incubated under aerobic conditions for 5 hours at 37° C. with continuous shaking. Separate samples of human plasma and fibronectin were incubated with ^35S-L-cysteine (1,000 Ci/mmol) (New England Nuclear, Boston, Mass.) which was first diluted with cold L-cysteine (in 1 mol/L TES buffer, pH 7.4) to obtain a specific activity equal to that of the synthesized ^35S-L-homocysteine. The final concentrations of L-cysteine and TES in the reaction mixture was 500 μmol/L and 0.05 mol/L respectively and the incubation was carried out as described above for L-homocysteine. The bound radioactive homocysteine was detected by SDS-PAGE of the samples followed by phosphorimage analysis (Molecular Dynamics Inc., Sunnyvale, Calif.).
(§2) Samples were combined with SDS-PAGE sample buffer (62.5 mmol/L Tris-HCl, pH 6.8, 2% SDS, 10% glycerol, 0.02% bromophenol blue) and aliquots of some samples were reduced with 2-mercaptoethanol and heated to 100° C. for 5 minutes. The samples were loaded onto 4-20% precast gradient gels (Z Axis, Hudson, Ohio) and electrophoresed using the method of Laemmli. […]

[2] = tested on: human plasma fibronectin; assay: Binding of 35S-L-homocysteine and 35S-L-cysteine to fibronectin (SDS-PAGE, phosphorimaging); conditions: 500 μmol/L, 5 hours at 37° C.
Protocol: as §1, §2

[3] = tested on: human plasma fibronectin; assay: Stoichiometry of 35S-L-homocysteine binding to fibronectin (scintillation counting)
Protocol: The human plasma fibronectin purified by affinity chromatography described above was used in these studies. Purity was assessed by SDS-PAGE as described below. Purified fibronectin (200 μg/mL) was incubated with various concentrations (up to 500 μmol/L) of ^35S-L-homocysteine for up to 10 hours at 37° C. Unbound homocysteine was removed by precipitating the fibronectin with 5% trichloroacetic acid containing 0.5% tannic acid using transferrin as a carrier protein. The precipitated fibronectin was washed 3 times with the trichloroacetic acid/tannic acid, resuspended in 0.1 N NaOH and an aliquot subjected to scintillation counting.

[4] = molecular target: T2, human transthyretin (TTR) (Homo sapiens, UniProt P02766); assay: Radiolabeling and SDS-PAGE of human plasma and purified transthyretin with 35S-L-homocysteine; format: binding; conditions: 0.5 mM, 5 h, label lost with β-mercaptoethanol
T2 construct: Plasma TTR is a 127 amino acid protein containing a single cysteine residue at position 10; purchased Sigma
Protocol: ^35S-L-Homocysteine was incubated with 50% human plasma in 0.05 M TES buffer (pH 7.4), or with purified human transthyretin (1 mg/ml in water) for 5 h at 37 C. Protein was then precipitated with 1.5 M perchloric acid and washed three times with 1.5 M perchloric acid. The final pellet was solubilized in SDS-PAGE sample buffer with and without reduction by β-mercaptoethanol. After treatment at 100 C. for 10 min, aliquots were subjected to analysis by SDS-PAGE using a 10% gel. The gel was stained with Coomassie blue, dried and subjected to phosphorimaging to detect ^35S- labeled proteins.
In FIG. 1, ^35S-L-Homocysteine (0.5 mM) was incubated with 50% human plasma in 0.05M TES buffer (pH 7.4) and with commercially available human transthyretin from Sigma (1 mg/mL in water) for 5 hours at […]. Following the incubation, protein was precipitated with 1.5M perchloric acid and solubilized with SDS-PAGE sample buffer. Aliquots were subjected to analysis by SDS-PAGE using a 10% gel without (see lanes 1 and 2 in FIG. 1) and with reduction by β-mercaptoethanol followed by heating at 100° C. for 10 minutes (see lanes 3 and 4 in FIG. 1). The gel was strained with Coomassie blue, dried and subjected to phosphorimaging to detect ^35S-labeled proteins. […]

T1 sequence (P02768 25-609): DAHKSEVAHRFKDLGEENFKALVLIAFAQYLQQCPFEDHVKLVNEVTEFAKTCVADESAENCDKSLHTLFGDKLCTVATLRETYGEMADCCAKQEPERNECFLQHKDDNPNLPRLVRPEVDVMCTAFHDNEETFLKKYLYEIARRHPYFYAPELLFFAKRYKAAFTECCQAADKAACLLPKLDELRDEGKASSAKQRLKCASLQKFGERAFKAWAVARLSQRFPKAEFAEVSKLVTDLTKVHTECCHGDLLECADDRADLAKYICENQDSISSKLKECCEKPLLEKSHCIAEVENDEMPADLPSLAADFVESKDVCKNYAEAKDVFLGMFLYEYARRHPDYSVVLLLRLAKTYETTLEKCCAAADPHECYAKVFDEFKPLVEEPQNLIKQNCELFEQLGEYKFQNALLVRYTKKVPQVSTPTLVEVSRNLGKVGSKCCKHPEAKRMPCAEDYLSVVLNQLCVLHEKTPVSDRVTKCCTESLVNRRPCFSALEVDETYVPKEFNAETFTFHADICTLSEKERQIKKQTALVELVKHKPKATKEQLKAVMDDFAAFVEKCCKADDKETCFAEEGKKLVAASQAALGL

| binding to fibronectin in plasma or purified fibronectin [2] | time for binding to fibronectin to reach equilibrium ([3]; 500 μmol/L homocysteine) [h] | maximum homocysteine bound per mole of dimeric fibronectin ([3]; up to 500 μmol/L homocysteine, 37° C.) [mol] | Structure (SMILES) | binding to albumin in human plasma [1] | reaction with TTR (labeling of TTR dimer and tetramer) [4] |
| --- | --- | --- | --- | --- | --- |
| did not bind | – | – | N[C@@H](CS)C(=O)O [L-cysteine] | bound to albumin | – |
| bound via a disulfide linkage | ≤ 5 | 5 | N[C@@H](CCS)C(=O)O [L-homocysteine] | most of the radioactivity in the plasma was associated with albumin | readily reacts with the Cys^10 position of TTR |
